Measured values reported in ChEMBL document CHEMBL1146999, “Bradykinin antagonists modified with dipeptide mimetic beta-turn inducers” (Bioorg Med Chem Lett, 2006).

How the values were obtained:
[1] = target: T1, B2 bradykinin receptor (Homo sapiens, UniProt P30411); experiment: Binding affinity to human bradykinin B2 receptor transfected in CHO cells; type: cell-based
T1 sequence (P30411 whole entry): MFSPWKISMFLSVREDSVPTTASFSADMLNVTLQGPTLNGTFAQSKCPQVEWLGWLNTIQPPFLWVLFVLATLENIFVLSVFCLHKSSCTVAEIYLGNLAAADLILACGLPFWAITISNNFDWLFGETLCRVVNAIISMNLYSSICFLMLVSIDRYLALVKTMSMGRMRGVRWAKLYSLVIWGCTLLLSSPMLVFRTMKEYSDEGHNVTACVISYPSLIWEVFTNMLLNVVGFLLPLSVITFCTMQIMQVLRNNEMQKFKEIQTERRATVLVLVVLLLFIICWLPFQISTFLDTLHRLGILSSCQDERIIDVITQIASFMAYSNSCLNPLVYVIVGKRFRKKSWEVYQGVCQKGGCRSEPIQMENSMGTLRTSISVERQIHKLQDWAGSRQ

[2] = target: T1, B2 bradykinin receptor; experiment: Antagonist activity against bradykinin B2 receptor; type: functional; conditions: read-out: pA2 (converted)

SMILES	Ki [1] [nM]	Kb [2] [nM]
NC(N)=NCCC[C@@H](N)C(=O)N[C@@H](CCCN=C(N)N)C(=O)N1CCC[C@H]1C(=O)N1CC(O)C[C@H]1C(=O)NCC(=O)N[C@@H](Cc1cccs1)C(=O)N[C@@H](CO)C(=O)N[C@]1(Cc2ccccc2)CCCC2N(C1=O)[C@H](C(=O)N[C@@H](CCCN=C(N)N)C(=O)O)CC21CCCC1 (some centres undefined)	3160	> 10000
NC(N)=NCCC[C@@H](N)C(=O)N[C@@H](CCCN=C(N)N)C(=O)N1CCC[C@H]1C(=O)N1CC(O)C[C@H]1C(=O)NCC(=O)N[C@@H](Cc1cccs1)C(=O)N[C@@H](CO)C(=O)N[C@@]1(Cc2ccccc2)CCCC2N(C1=O)[C@H](C(=O)N[C@@H](CCCN=C(N)N)C(=O)O)CC21CCCC1 (some centres undefined)	100	2510
